Laboratory results: publication PMC5826112, “Intrapulmonary Pharmacokinetics of Relebactam, a Novel β-Lactamase Inhibitor, Dosed in Combination with Imipenem-Cilastatin in Healthy Subjects” (Antimicrobial Agents and Chemotherapy, 2018)
Like-named read-outs stand apart in the source and are kept apart here.

Tests used:
[1] = Intrapulmonary (ELF, AC) and plasma pharmacokinetics after multiple-dose IV relebactam with imipenem-cilastatin, bronchoscopy/BAL, noncompartmental analysis; type: in vivo, human (healthy subjects); conditions: for t1/2 (terminal half-life) / half-life / AUC(0-inf) / Cmax / Tmax / AUC(0-t): mean profile; for half-life: read-out: t1/2 (terminal half-life) (converted); for Kp at 1 h: 1.0 h after last dose; for Kp at 3 h: 3.0 h after last dose; for AUC(0-inf): noncompartmental analysis; for AUC(0-t): read-out: AUC0–3
Method: Dosing and administration of imipenem-cilastatin were carried out in a manner consistent with the recommended labeled posology. BAL fluid specimens were obtained during bronchoscopy for the determination of the relebactam and imipenem concentrations in the ELF and AC. Four aliquots of normal saline (50 ml each) were sequentially instilled and aspirated after each instillation. The first aspirate was discarded, and the remaining aspirates were pooled and used to obtain urea and drug level measurements. Aliquots were obtained for cell count/differential, and the remainder of the pooled aspirates was centrifuged. The liquid aspirate and cell pellet were separated and stored at −70°C. The supernatant was sent for urea and drug level measurements. Blood samples were collected prior to the first and fifth doses of study drug for the determination of relebactam and imipenem plasma concentrations. Blood samples were also collected during the bronchoscopy/BAL procedure for the determination of relebactam, imipenem, and urea concentrations. Relebactam and imipenem levels in plasma, pulmonary ELF, and AC were measured simultaneously via acetonitrile protein precipitation and hydrophilic interaction liquid chromatography (HILIC) with detection via liquid chromatography-tandem mass spectrometry (LC-MS/MS). The system consisted of a Waters Acquity ultraperformance liquid chromatograph (Waters Corp., Milford, MA) and an API 4000 or 5000 triple-quadrupole tandem mass spectrometer (Sciex, Framingham, MA) equipped with a turbo-ion spray interface and operated in the positive ionization mode. The multiple reaction monitoring (MRM) transitions monitored were m/z 349 → 269 for relebactam, m/z 300 → 98 for imipenem, and m/z 354 → 274 and m/z 307 → 98 for their respective internal standards. […] The ELF volumes recovered by BAL were determined by using urea as an endogenous marker to provide a dilution ratio by measurement of urea concentrations in the BAL fluid and serum ([33]). […] The mean value for each time point was used to conduct the noncompartmental analysis using Phoenix (version 6.3) software (Pharsight Corporation, Mountain View, CA) and to calculate the values of the PK parameters on the basis of the mean profile in each matrix.

[2] = parameters: method as in PMID 25403667; conditions: thigh infection model; cited from earlier work
[3] = both sexes, human, AC/plasma, intravenous, same regimen, n=4, read-out: AC/plasma concn GMR (90% CI)
[4] = both sexes, human, ELF/plasma, intravenous, same regimen, n=4, read-out: ELF/plasma concn GMR (90% CI)
[5] = both sexes, human, intravenous, AC, same regimen
[6] = both sexes, human, intravenous, ELF, same regimen
[7] = both sexes, human, intravenous, plasma, same regimen

In the case of `O=C(NC1CCNCC1)[C@@H]1CC[C@@H]2CN1C(=O)N2OS(=O)(=O)O` [relebactam], the “t1/2 (terminal half-life)” value ([1]; AC, same regimen) is reported as 2.25 h, the “t1/2 (terminal half-life)” value ([1]; ELF, same regimen) is reported as 1.29 h and the “GMR for the relebactam concentration versus the imipenem concentration in ELF” value ([1]; at the Tmax of imipenem (0.5 h), 90% CI 45%, 49%) is reported as 47%. For the same molecule, the half-life ([1]; both sexes, human, AC, intravenous, AC, same regimen) was 2.3 h, the Kp ([1]; both sexes, human, AC/plasma, intravenous, mean profiles, after adjustment for protein binding, read-out: relative exposure (AUC0–∞) in AC versus plasma) was 0.36 and the Kp ([1]; both sexes, human, AC/plasma, intravenous, same regimen, 0.5 to 3 h after last dose, read-out: GMRs for AC/plasma concentrations, range across time points) was 0.14 to 0.51. It also gave a Kp at 0.5 h ([1]; both sexes, human, AC/plasma, intravenous, same regimen, 0.5 h after last dose, n=4, read-out: AC/plasma concn GMR (90% CI)) of 0.14, a Kp at 1 h [1, 3] of 0.25 and a Kp at 1.5 h ([1]; both sexes, human, AC/plasma, intravenous, same regimen, 1.5 h after last dose, n=4, read-out: AC/plasma concn GMR (90% CI)) of 0.38. The Kp at 3 h [1, 3] was 0.51, the half-life ([1]; both sexes, human, ELF, intravenous, ELF, same regimen) was 1.3 h and the concentration at 0.5 h ([1]; both sexes, human, ELF, intravenous, same regimen, 0.5 h after last dose, n=4, read-out: concn in ELF, GM) was 14.9 µM. For the same molecule, the concentration at 1 h ([1]; both sexes, human, ELF, intravenous, same regimen, 1 h after last dose, n=4, read-out: concn in ELF, GM) was 10.9 µM, the concentration at 1.5 h ([1]; both sexes, human, ELF, intravenous, same regimen, 1.5 h after last dose, n=4, read-out: concn in ELF, GM) was 9.49 µM and the concentration at 3 h ([1]; both sexes, human, ELF, intravenous, same regimen, 3 h after last dose, n=4, read-out: concn in ELF, GM) was 4.27 µM. It also gave a Kp ([1]; both sexes, human, ELF/plasma, intravenous, calculated as 100 · ELF AUC0–∞/plasma AUC0–∞/0.8, adjusted for protein binding (80% unbound in plasma, 100% free in ELF), read-out: Adjusted ELF/plasma AUC0–∞ ratio) of 0.54, a Kp ([1]; both sexes, human, ELF/plasma, intravenous, calculated as 100 · ELF AUC0–∞/plasma AUC0–∞, mean profiles, read-out: ELF/plasma AUC0–∞ ratio) of 0.43 and a Kp ([1]; both sexes, human, ELF/plasma, intravenous, same regimen, 0.5 to 3 h after last dose, read-out: GMRs for ELF/plasma concentrations, range across time points) of 0.32 to 0.51. For the same molecule, the Kp at 1 h [1, 4] was 0.35, the Kp at 1.5 h ([1]; both sexes, human, ELF/plasma, intravenous, same regimen, 1.5 h after last dose, n=4, read-out: ELF/plasma concn GMR (90% CI)) was 0.51 and the Kp at 3 h [1, 4] was 0.46. The Kp at 0.5 h ([1]; both sexes, human, ELF/plasma, iv, healthy subjects, relebactam 250 mg with imipenem-cilastatin 500 mg IV every 6 h, 5 doses, 0.5 h after last dose, n=4, read-out: ELF/plasma concn GMR (90% CI)) was 0.32, the AUC(0-inf) [1, 5] was 23.6 µM·h and the Cmax [1, 5] was 7.81 µM. The Tmax [1, 5] was 1 h, the AUC(0-t) [1, 5] was 12.8 µM·h and the AUC(0-inf) [1, 6] was 34.9 µM·h. It also gave a Cmax [1, 6] of 15.3 µM, a Tmax [1, 6] of 0.5 h and an AUC(0-t) [1, 6] of 26.7 µM·h. It also gave an AUC(0-inf) [1, 7] of 81.2 µM·h, a Cmax [1, 7] of 47.9 µM and a Tmax [1, 7] of 0.5 h. The AUC(0-t) [1, 7] was 64.7 µM·h, the half-life ([1]; both sexes, human, plasma, intravenous, plasma, same regimen) was 1.2 h and the “Adjusted ELF/plasma AUC0–∞ ratio” value ([1]; calculated as 100 · ELF AUC0–∞/plasma AUC0–∞/0.8, adjusted for protein binding (80% unbound in plasma, 100% free in ELF)) was 53.7%. The “t1/2 (terminal half-life)” value ([1]; plasma, same regimen) was 1.24 h, the “Relebactam/imipenem concn ratio in ELF, GMR” value ([1]; same regimen, 0.5 h after last dose) was 0.47 and the “Relebactam/imipenem concn ratio in ELF, GMR” value ([1]; same regimen, 1 h after last dose) was 0.54. For the same molecule, the “Relebactam/imipenem concn ratio in ELF, GMR” value ([1]; same regimen, 1.5 h after last dose) was 0.58, the “Relebactam/imipenem concn ratio in ELF, GMR” value ([1]; same regimen, 3 h after last dose) was 0.71 and the “required exposure (AUC0–24) for efficacy” value [2] was ~100 µM·h.
